Reference: patent US20250295679A1, “Compositions and Dosage Forms for Treatment of HPV Infection and HPV-Induced Neoplasia” (priority 2022, published 2025)

Experiments:
[1] = Solubility in buffers, water and simulated vaginal fluid at 37° C.; conditions: for pH of solution at 2 hours: 37° C.
[2] = Hygroscopicity by DVS at 25° C.; format: physicochemical; conditions: for XRPD after DVS test: 25° C.
Method: Hygroscopicity was investigated by DVS at 25° C., using the following method: • Method: 40-0-95-0-40% RH, dm/dt=0.002

[3] = Polymorph screening by equilibration in solvents; format: physicochemical
[4] = Hygroscopicity by DVS at 25° C.; format: physicochemical; conditions: cycle of 40-0-95-0-45% relative humidity
[5] = Bulk (accelerated) stability, one week, HPLC and XRPD; conditions: for Bulk (HPLC) Purity: 1 week
Method: Bulk stability: Accelerated stability experiments were conducted at 25° C./92% RH and 40° C./75% RH in an open container, 60° C. in a tight container for one week.
Samples were characterized by XRPD and HPLC and inspected for color change.
Accelerated stability experiments were conducted at 25° C./92% RH in an open container, at 40° C./75% RH in an open container, and at 60° C. in a tight container for one week.

[6] = 37 °C, pH 3, aqueous buffer, thermodynamic from solid
[7] = 37 °C, pH 4.2, fassgf or other biorelevant, thermodynamic from solid
[8] = 37 °C, pH 4.5, aqueous buffer, thermodynamic from solid
[9] = 37 °C, pH 6.8, aqueous buffer, thermodynamic from solid
[10] = 37 °C, water, thermodynamic from solid

CCOC(=O)[C@H](C)N[P@](=O)(COCCn1cnc2c(OC)nc(N)nc21)OCc1ccccc1.O=C(O)/C=C/C(=O)O (single isomer, unassigned) [Compound III]
solubility at 0.5 h [1, 6]: > 2 mg/mL
solubility at 2 h [1, 6]: > 2 mg/mL
solubility at 0.5 h [1, 7]: > 2 mg/mL
solubility at 2 h [1, 7]: > 2 mg/mL
solubility at 0.5 h [1, 8]: > 2 mg/mL
solubility at 2 h [1, 8]: > 2 mg/mL
solubility at 0.5 h [1, 9]: > 2 mg/mL
solubility at 2 h [1, 9]: > 2 mg/mL
solubility ([1]; 37 °C, thermodynamic from solid): > 2 mg/mL
solubility at 0.5 h [1, 10]: > 2 mg/mL
solubility at 2 h [1, 10]: > 2 mg/mL
pH of solution at 2 hours ([1]; ES1: pH 3.0, 100 mM citrate buffer): 2.83
pH of solution at 2 hours ([1]; ES2: pH 4.5, 50 mM acetate buffer): 4.12
pH of solution at 2 hours ([1]; ES3: pH 6.8, 50 mM phosphate buffer): 6.44
pH of solution at 2 hours ([1]; ES4: Water): 2.78
pH of solution at 2 hours ([1]; ES5: Simulated vaginal fluid (pH adjusted by 0.1N NaOH)): 5.37
Desorp. (%) Cycle 1 ([2]; DVS 25° C., 0% RH): 0.00%
Desorp. (%) Cycle 2 ([2]; DVS 25° C., 0% RH): 0.00%
Sorp. (%) Cycle 1 ([2]; DVS 25° C., 0% RH): 0.00%
Sorp. (%) Cycle 2 ([2]; DVS 25° C., 0% RH): 0.00%
Desorp. (%) Cycle 1 ([2]; DVS 25° C., 10% RH): 0.07%
Desorp. (%) Cycle 2 ([2]; DVS 25° C., 10% RH): 0.07%
Sorp. (%) Cycle 1 ([2]; DVS 25° C., 10% RH): 0.07%
Sorp. (%) Cycle 2 ([2]; DVS 25° C., 10% RH): 0.07%
Desorp. (%) Cycle 1 ([2]; DVS 25° C., 20% RH): 0.15%
Desorp. (%) Cycle 2 ([2]; DVS 25° C., 20% RH): 0.15%
Sorp. (%) Cycle 1 ([2]; DVS 25° C., 20% RH): 0.14%
Sorp. (%) Cycle 2 ([2]; DVS 25° C., 20% RH): 0.14%
Desorp. (%) Cycle 1 ([2]; DVS 25° C., 30% RH): 0.23%
Desorp. (%) Cycle 2 ([2]; DVS 25° C., 30% RH): 0.23%
Sorp. (%) Cycle 1 ([2]; DVS 25° C., 30% RH): 0.22%
Sorp. (%) Cycle 2 ([2]; DVS 25° C., 30% RH): 0.22%
Desorp. (%) Cycle 1 ([2]; DVS 25° C., 40% RH): 0.30%
Desorp. (%) Cycle 2 ([2]; DVS 25° C., 40% RH): 0.32%
Sorp. (%) Cycle 1 ([2]; DVS 25° C., 40% RH): 0.29%
Sorp. (%) Cycle 2 ([2]; DVS 25° C., 40% RH): 0.30%
Desorp. (%) Cycle 2 ([2]; DVS 25° C., 50% RH): 0.41%
Sorp. (%) Cycle 1 ([2]; DVS 25° C., 50% RH): 0.39%
Desorp. (%) Cycle 2 ([2]; DVS 25° C., 60% RH): 0.52%
Sorp. (%) Cycle 1 ([2]; DVS 25° C., 60% RH): 0.47%
Desorp. (%) Cycle 2 ([2]; DVS 25° C., 70% RH): 0.67%
Sorp. (%) Cycle 1 ([2]; DVS 25° C., 70% RH): 0.59%
Desorp. (%) Cycle 2 ([2]; DVS 25° C., 80% RH): 0.81%
Sorp. (%) Cycle 1 ([2]; DVS 25° C., 80% RH): 0.71%
Desorp. (%) Cycle 2 ([2]; DVS 25° C., 90% RH): 0.97%
Sorp. (%) Cycle 1 ([2]; DVS 25° C., 90% RH): 0.92%
Desorp. (%) Cycle 2 ([2]; DVS 25° C., 95% RH): 1.01%
Sorp. (%) Cycle 1 ([2]; DVS 25° C., 95% RH): 1.01%
Hygroscopicity ([2]; DVS at 25° C., in words): slightly hygroscopic
XRPD after DVS test ([2]; after DVS 40-0-95-0-40% RH): No form change
XRPD after DVS test ([2]; after humidity cycle 40-0-95-0-40% RH, listed as Compound III Pattern 2, monofumarate): No form change
XRPD after DVS test ([2]; after humidity cycle 40-0-95-0-40% RH, monofumarate): lose one of the peaks
Water uptake ([2]; up to / in 95% RH, DVS 25° C.): about 1.0%
Crystal modification after 1 week equilibration at 25° C. ([3]; PS1: IPA): Compound V Pattern 2
Crystal modification after 1 week equilibration at 25° C. ([3]; PS2: Heptanes): Compound III Pattern 2
Crystal modification after 1 week equilibration at 25° C. ([3]; PS3: Water): Compound III Pattern 3
Crystal modification after 1 week equilibration at 25° C. ([3]; PS4: ACN): Compound III Pattern 4
Crystal modification after 1 week equilibration at 25° C. ([3]; PS5: MEK): Compound III Pattern 5
Crystal modification after 1 week equilibration at 25° C. ([3]; PS7: IPA/heptanes (3/10, v/v)): Compound III Pattern 2
Crystal modification after 1 week equilibration at 25° C. ([3]; PS8: water/ACN (2.9/97.1, v/v)): Compound III Pattern 4
Crystal modification after 1 week equilibration at 25° C. ([3]; PS9: IPA/MTBE (1/3, v/v)): Compound III Pattern 6
Crystal modification after 1 week equilibration at 25° C. ([3]; PS10: EA/toluene (1/3, v/v)): Compound III Pattern 2
Dissociation of the salt during equilibration experiments ([3]; equilibration in solvents, 1 week, 25° C.): dissociation was observed
Fold increase of retained water content over Compound II [4]: 40 fold
Stability after exposure to the three conditions ([5]; 25° C./92% RH open, 40° C./75% RH open, 60° C. tight container, one week): good physical stability
Bulk (HPLC) Purity ([5]; BS1: solid state, 25° C./92% RH, open container): 98.7%
Bulk (HPLC) Purity ([5]; BS2: solid state, 40° C./75% RH, open container): 97.2%
Bulk (HPLC) Purity ([5]; BS3: solid state, 60° C., tight container): 97.3%
HPLC purity, Initial ([5]; initial chemical purity before storage): 98.8%
